Reference: ChEMBL document CHEMBL5223133, “A review of MMP-2 structures and binding mode analysis of its inhibitors to strategize structure-based drug design” (Bioorg Med Chem, 2022)
Each block holds one compound with its values, some of them ahead of it. The source made the active and inactive calls. The calls are words filed in the database; no cut-off is given here.

Columns and labels:
[1] = biological target: T1, 72 kDa type IV collagenase (Homo sapiens, UniProt P08253); experiment: Inhibition of MMP2 (unknown origin)
Target sequence in this assay (P08253 whole entry): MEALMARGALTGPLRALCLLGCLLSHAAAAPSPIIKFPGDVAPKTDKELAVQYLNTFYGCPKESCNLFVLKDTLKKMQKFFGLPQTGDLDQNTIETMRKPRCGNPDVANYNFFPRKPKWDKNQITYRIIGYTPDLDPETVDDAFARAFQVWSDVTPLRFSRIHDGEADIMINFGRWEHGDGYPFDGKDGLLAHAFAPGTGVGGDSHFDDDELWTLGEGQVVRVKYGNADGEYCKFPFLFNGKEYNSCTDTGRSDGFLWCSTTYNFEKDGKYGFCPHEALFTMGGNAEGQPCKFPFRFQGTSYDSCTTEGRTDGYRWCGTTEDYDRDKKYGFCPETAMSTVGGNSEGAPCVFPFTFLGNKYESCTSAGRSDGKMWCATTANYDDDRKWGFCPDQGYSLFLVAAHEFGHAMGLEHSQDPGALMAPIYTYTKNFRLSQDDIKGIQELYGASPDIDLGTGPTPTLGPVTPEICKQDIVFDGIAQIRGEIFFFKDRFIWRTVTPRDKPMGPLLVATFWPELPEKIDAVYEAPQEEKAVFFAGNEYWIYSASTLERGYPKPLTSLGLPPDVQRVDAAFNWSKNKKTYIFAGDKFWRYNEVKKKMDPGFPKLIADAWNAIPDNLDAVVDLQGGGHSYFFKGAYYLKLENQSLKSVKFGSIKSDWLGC

[2] = biological target: T1, 72 kDa type IV collagenase; experiment: Inhibition of MMP2 (unknown origin) gelatinase activity at >= 7.5 uM incubated for 24 hrs by modified zymography assay
Target sequence in this assay (P08253 110-660 limits assumed): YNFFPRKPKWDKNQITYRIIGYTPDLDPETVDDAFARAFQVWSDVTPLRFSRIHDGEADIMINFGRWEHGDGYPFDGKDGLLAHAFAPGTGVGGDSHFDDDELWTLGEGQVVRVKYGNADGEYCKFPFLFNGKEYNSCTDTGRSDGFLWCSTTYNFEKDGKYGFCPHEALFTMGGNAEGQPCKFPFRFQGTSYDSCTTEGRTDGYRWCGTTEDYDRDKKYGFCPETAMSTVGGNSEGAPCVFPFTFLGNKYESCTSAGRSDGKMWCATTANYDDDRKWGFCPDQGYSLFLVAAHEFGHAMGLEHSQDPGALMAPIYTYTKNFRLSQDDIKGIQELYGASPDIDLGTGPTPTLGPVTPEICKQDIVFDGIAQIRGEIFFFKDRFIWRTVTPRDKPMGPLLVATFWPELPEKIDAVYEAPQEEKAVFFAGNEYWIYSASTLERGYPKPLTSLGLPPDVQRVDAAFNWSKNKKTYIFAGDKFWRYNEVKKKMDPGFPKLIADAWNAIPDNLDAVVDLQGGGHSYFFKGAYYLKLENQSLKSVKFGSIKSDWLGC

[3] = biological target: Matrix metalloproteinase-9 (Homo sapiens) (UniProt P14780); experiment: Inhibition of MMP9 (unknown origin) gelatinase activity at 5 to 20 uM incubated for 24 hrs by modified zymography assay; settings: dose 5-20 µM
Sequence of Matrix metalloproteinase-9 (Homo sapiens) (P14780 whole entry): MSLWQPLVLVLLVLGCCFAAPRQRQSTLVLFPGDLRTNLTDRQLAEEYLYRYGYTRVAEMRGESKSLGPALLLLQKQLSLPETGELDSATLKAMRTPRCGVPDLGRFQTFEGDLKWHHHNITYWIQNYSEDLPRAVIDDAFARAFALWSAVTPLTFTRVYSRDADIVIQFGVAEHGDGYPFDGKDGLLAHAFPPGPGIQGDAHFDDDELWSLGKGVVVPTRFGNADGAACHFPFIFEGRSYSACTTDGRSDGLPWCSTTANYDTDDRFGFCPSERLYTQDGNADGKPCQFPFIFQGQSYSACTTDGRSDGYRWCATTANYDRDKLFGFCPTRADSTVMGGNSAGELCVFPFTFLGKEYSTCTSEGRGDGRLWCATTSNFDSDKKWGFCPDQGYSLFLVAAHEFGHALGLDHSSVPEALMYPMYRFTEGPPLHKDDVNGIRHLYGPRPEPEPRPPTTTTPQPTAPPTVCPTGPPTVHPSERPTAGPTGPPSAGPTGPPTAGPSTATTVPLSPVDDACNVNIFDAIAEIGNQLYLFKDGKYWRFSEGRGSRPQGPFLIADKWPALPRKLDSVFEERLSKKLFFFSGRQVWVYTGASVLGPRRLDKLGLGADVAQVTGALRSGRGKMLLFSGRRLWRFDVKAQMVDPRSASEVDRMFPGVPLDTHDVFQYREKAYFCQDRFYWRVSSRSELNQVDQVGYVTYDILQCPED

[4] = biological target: Matrix metalloproteinase-9 (Homo sapiens) (UniProt P14780); experiment: Inhibition of MMP9 (unknown origin) gelatinase activity at >= 7.5 uM incubated for 24 hrs by modified zymography assay
[5] = biological target: T1, 72 kDa type IV collagenase; experiment: Inhibition of MMP2 (unknown origin) gelatinase activity at 5 to 20 uM incubated for 24 hrs by modified zymography assay; settings: dose 5-20 µM
Target sequence in this assay (P08253 110-660 limits assumed): as the sequence (P08253 110-660 limits assumed) above

[6] = biological target: T1, 72 kDa type IV collagenase; experiment: Inhibition of human MMP2
Target sequence in this assay (P08253 whole entry): as the sequence (P08253 whole entry) above

A549 = experiment: Anticancer activity against human A549 cells assessed as cell survival measured after 48 hrs by MTT assay; assay type: functional, cell-based; settings: A549, 48 h

SMILES: Cc1cc(=O)c(O)c(C(=O)NCc2ccc(-c3ccc(C#N)cc3)cc2)o1
- IC50 [1]: 9300 nM

SMILES: c1cc2nc(c1)CNCCNCCCNCCNC2
- inhibition [2]: 100%
- inhibition [3]: Active
- inhibition [4]: 100%
- inhibition [5]: Active

SMILES: N#Cc1ccc(Oc2ccc(S(=O)(=O)N3CCc4c([nH]c5ccccc45)C3C(=O)NO)cc2)cc1 (stereo unspecified)
- IC50 [1]: 150 nM

SMILES: CCCCCCCC/C=C/CCCCCCCC(=O)O [ELAIDIC ACID]
- IC50 [6]: 2000 nM

SMILES: CCCCCCCC/C=C\CCCCCCCC(=O)NNC(=O)[C@H](Cc1cc2ccccc2[nH]1)NC(=O)[C@@H](CC(=O)NO)CC(C)C
- IC50 [6]: 27 nM

SMILES: O=C(NO)C1CN(C(=O)c2ccccc2)CCCN1C(=O)/C=C/c1ccc(O)c(O)c1 (stereo unspecified)
- IC50 (A549): 8200 nM

SMILES: c1cc2nc(c1)CNCCNCCNCCNC2
- inhibition [2]: 100%
- inhibition [3]: Active
- inhibition [4]: 100%
- inhibition [5]: Active

Now from value to compound:

- IC50 [1]: 610 nM
SMILES: Cc1cc(=O)c(O)c(C(=O)NCc2ccc(-c3ccccc3)cc2)o1

- IC50 [1]: 36 nM
SMILES: CNC(=O)[C@@H](NC(=O)c1ccc(-c2ccc(OCc3ccn[nH]3)cn2)o1)C1CCCCC1

- IC50 [1]: 5000 nM
SMILES: O=C(NCc1ccco1)Nc1c[nH]c2cccnc2c1=O
